Measurements reported in ChEMBL document CHEMBL1671662, “In vitro activities of telavancin and six comparator agents against anaerobic bacterial isolates” (2009).
Values after ≈ are worked out from the molar mass of the structure shown.

What was measured:
Assay type in all cases: functional
Parabacteroides merdae = assay: Antibacterial activity against Parabacteroides merdae by CLSI M11-A6 agar dilution method
Odoribacter splanchnicus = assay: Antibacterial activity against Bacteroides splanchnicus by CLSI M11-A6 agar dilution method
[1] = system: Catenibacterium mitsuokai; assay: Antibacterial activity against Catenibacterium mitsuokai by CLSI M11-A6 agar dilution method
[2] = system: Peptostreptococcus anaerobius; assay: Antibacterial activity against Peptostreptococcus anaerobius by CLSI M11-A6 agar dilution method
[3] = system: Parabacteroides distasonis; assay: Antibacterial activity against Parabacteroides distasonis by CLSI M11-A6 agar dilution method
Bilophila wadsworthia = assay: Antibacterial activity against Bilophila wadsworthia by CLSI M11-A6 agar dilution method
[4] = system: Clostridium sporosphaeroides; assay: Antibacterial activity against Clostridium sporosphaeroides by CLSI M11-A6 agar dilution method; conditions: Faecalispora sporosphaeroides
Clostridium hathewayi = assay: Antibacterial activity against Clostridium hathewayi by CLSI M11-A6 agar dilution method; conditions: Hungatella hathewayi
[5] = system: Clostridium paraputrificum; assay: Antibacterial activity against Clostridium paraputrificum by CLSI M11-A6 agar dilution method
[6] = system: Clostridium celerecrescens; assay: Antibacterial activity against Clostridium celerecrescens by CLSI M11-A6 agar dilution method; conditions: Lacrimispora celerecrescens
[7] = system: Bacteroides thetaiotaomicron; assay: Antibacterial activity against Bacteroides thetaiotaomicron by CLSI M11-A6 agar dilution method
Clostridium perfringens = assay: Antibacterial activity against Clostridium perfringens by CLSI M11-A6 agar dilution method
Clostridium glycolicum = assay: Antibacterial activity against Clostridium glycolicum by CLSI M11-A6 agar dilution method; conditions: Terrisporobacter glycolicus
Actinomyces naeslundii = assay: Antibacterial activity against Actinomyces naeslundii by CLSI M11-A6 agar dilution method
Bacteroides ovatus = assay: Antibacterial activity against Bacteroides ovatus by CLSI M11-A6 agar dilution method
Clostridium butyricum = assay: Antibacterial activity against Clostridium butyricum by CLSI M11-A6 agar dilution method
Collinsella aerofaciens = assay: Antibacterial activity against Colinsella aerofaciens by CLSI M11-A6 agar dilution method
Flavonifractor plautii = assay: Antibacterial activity against Clostridium orbiscindens by CLSI M11-A6 agar dilution method
[8] = system: Sutterella wadsworthensis; assay: Antibacterial activity against Sutterella wadsworthensis by CLSI M11-A6 agar dilution method
Hoylesella loescheii = assay: Antibacterial activity against Prevotella loescheii by CLSI M11-A6 agar dilution method
Clostridium bolteae = assay: Antibacterial activity against Clostridium bolteae by CLSI M11-A6 agar dilution method; conditions: Enterocloster bolteae
[9] = system: Coprobacillus cateniformis; assay: Antibacterial activity against Coprobacillus cateniformis by CLSI M11-A6 agar dilution method
Clostridium subterminale = assay: Antibacterial activity against Clostridium subterminale by CLSI M11-A6 agar dilution method
Clostridioides difficile = assay: Antibacterial activity against Clostridium difficile by CLSI M11-A6 agar dilution method
Prevotella disiens = assay: Antibacterial activity against Prevotella P disiens by CLSI M11-A6 agar dilution method
Blautia luti = assay: Antibacterial activity against Ruminococcus luti by CLSI M11-A6 agar dilution method
Ruminococcus obeum = assay: Antibacterial activity against Ruminococcus obeum by CLSI M11-A6 agar dilution method; conditions: Blautia obeum
[10] = system: Streptococcus intermedius; assay: Antibacterial activity against Streptococcus intermedius by CLSI M11-A6 agar dilution method
Clostridium sp. = assay: Antibacterial activity against Clostridium sp. by CLSI M11-A6 agar dilution method
Coriobacterium = assay: Antibacterial activity against […] by CLSI M11-A6 agar dilution method
Clostridium leptum = assay: Antibacterial activity against Clostridium leptum by CLSI M11-A6 agar dilution method
Prevotella bivia = assay: Antibacterial activity against Prevotella bivia by CLSI M11-A6 agar dilution method
Fusobacterium varium = assay: Antibacterial activity against Fusobacterium varium by CLSI M11-A6 agar dilution method
Prevotella nigrescens = assay: Antibacterial activity against Prevotella nigrescens by CLSI M11-A6 agar dilution method
[11] = system: Paeniclostridium sordellii; assay: Antibacterial activity against Clostridium sordellii by CLSI M11-A6 agar dilution method; conditions: Paraclostridium sordellii
Parvimonas micra = assay: Antibacterial activity against Peptostreptococcus micros by CLSI M11-A6 agar dilution method
Blautia producta = assay: Antibacterial activity against Ruminococcus productus by CLSI M11-A6 agar dilution method
Clostridium beijerinckii = assay: Antibacterial activity against Clostridium beijerinckii by CLSI M11-A6 agar dilution method
Prevotella corporis = assay: Antibacterial activity against Prevotella corporis by CLSI M11-A6 agar dilution method
Ruminococcus lactaris = assay: Antibacterial activity against Ruminococcus lactaris by CLSI M11-A6 agar dilution method
Ruminococcus sp. = assay: Antibacterial activity against Ruminococcus sp. by CLSI M11-A6 agar dilution method
Anaerococcus prevotii = assay: Antibacterial activity against Anaerococcus prevotii by CLSI M11-A6 agar dilution method
Ruminococcus gnavus = assay: Antibacterial activity against Ruminococcus gnavus by CLSI M11-A6 agar dilution method; conditions: Mediterraneibacter gnavus

CCCCCCCCCCNCCN[C@@]1(C)C[C@H](O[C@H]2[C@H](Oc3c4cc5cc3Oc3ccc(cc3Cl)[C@@H](O)[C@@H](NC(=O)[C@@H](CC(C)C)NC)C(=O)N[C@@H](CC(N)=O)C(=O)N[C@H]5C(=O)N[C@H]3C(=O)N[C@H](C(=O)N[C@H](C(=O)O)c5cc(O)c(CNCP(=O)(O)O)c(O)c5-c5cc3ccc5O)[C@H](O)c3ccc(c(Cl)c3)O4)O[C@H](CO)[C@@H](O)[C@@H]2O)O[C@@H](C)[C@H]1O [TELAVANCIN]
MIC (Parabacteroides merdae): > 64 µg/mL
MIC50 (Parabacteroides merdae): > 64 µg/mL
MIC90 (Parabacteroides merdae): > 64 µg/mL
MIC50 (Odoribacter splanchnicus): > 64 µg/mL
MIC90 (Odoribacter splanchnicus): > 64 µg/mL
MIC50 [1]: ≤ 0.12 µg/mL
MIC90 [1]: 0.5 µg/mL (≈ 0.285 µM)
MIC50 [2]: ≤ 0.12 µg/mL
MIC90 [2]: 0.25 µg/mL (≈ 0.142 µM)
MIC [3]: > 64 µg/mL
MIC50 [3]: > 64 µg/mL
MIC90 [3]: > 64 µg/mL
MIC (Bilophila wadsworthia): > 64 µg/mL
MIC50 (Bilophila wadsworthia): > 64 µg/mL
MIC90 (Bilophila wadsworthia): > 64 µg/mL
MIC50 [4]: ≤ 0.12 µg/mL
MIC90 [4]: 0.25 µg/mL (≈ 0.142 µM)
MIC50 (Clostridium hathewayi): 0.5 µg/mL (≈ 0.285 µM)
MIC90 (Clostridium hathewayi): 1 µg/mL (≈ 0.57 µM)
MIC50 [5]: ≤ 0.12 µg/mL
MIC90 [5]: 0.25 µg/mL (≈ 0.142 µM)
MIC50 [6]: ≤ 0.12 µg/mL
MIC90 [6]: 0.25 µg/mL (≈ 0.142 µM)
MIC50 [7]: > 64 µg/mL
MIC90 [7]: > 64 µg/mL
MIC50 (Clostridium perfringens): ≤ 0.12 µg/mL
MIC90 (Clostridium perfringens): 0.25 µg/mL (≈ 0.142 µM)
MIC50 (Clostridium glycolicum): ≤ 0.12 µg/mL
MIC90 (Clostridium glycolicum): 0.25 µg/mL (≈ 0.142 µM)
MIC50 (Actinomyces naeslundii): ≤ 0.12 µg/mL
MIC90 (Actinomyces naeslundii): 0.5 µg/mL (≈ 0.285 µM)
MIC (Bacteroides ovatus): > 64 µg/mL
MIC50 (Bacteroides ovatus): > 64 µg/mL
MIC90 (Bacteroides ovatus): > 64 µg/mL
MIC50 (Clostridium butyricum): ≤ 0.12 µg/mL
MIC90 (Clostridium butyricum): 0.25 µg/mL (≈ 0.142 µM)
MIC50 (Collinsella aerofaciens): ≤ 0.12 µg/mL
MIC90 (Collinsella aerofaciens): 0.5 µg/mL (≈ 0.285 µM)
MIC50 (Flavonifractor plautii): ≤ 0.12 µg/mL
MIC90 (Flavonifractor plautii): 0.25 µg/mL (≈ 0.142 µM)
MIC [8]: > 64 µg/mL
MIC50 [8]: > 64 µg/mL
MIC90 [8]: > 64 µg/mL
MIC50 (Hoylesella loescheii): 8 µg/mL (≈ 4.56 µM)
MIC90 (Hoylesella loescheii): 64 µg/mL (≈ 36.5 µM)
MIC50 (Clostridium bolteae): 4 µg/mL (≈ 2.28 µM)
MIC90 (Clostridium bolteae): 8 µg/mL (≈ 4.56 µM)
MIC50 [9]: ≤ 0.12 µg/mL
MIC90 [9]: 0.5 µg/mL (≈ 0.285 µM)
MIC (Clostridium subterminale): ≤ 0.12 µg/mL
MIC50 (Clostridium subterminale): ≤ 0.12 µg/mL
MIC90 (Clostridium subterminale): ≤ 0.12 µg/mL
MIC50 (Clostridioides difficile): 0.25 µg/mL (≈ 0.142 µM)
MIC90 (Clostridioides difficile): 0.25 µg/mL (≈ 0.142 µM)
MIC50 (Prevotella disiens): 8 µg/mL (≈ 4.56 µM)
MIC90 (Prevotella disiens): 64 µg/mL (≈ 36.5 µM)
MIC50 (Blautia luti): ≤ 0.12 µg/mL
MIC90 (Blautia luti): ≤ 0.12 µg/mL
MIC (Ruminococcus obeum): ≤ 0.12 µg/mL
MIC50 (Ruminococcus obeum): ≤ 0.12 µg/mL
MIC90 (Ruminococcus obeum): ≤ 0.12 µg/mL
MIC50 [10]: ≤ 0.12 µg/mL
MIC90 [10]: ≤ 0.12 µg/mL
MIC50 (Clostridium sp.): ≤ 0.12 µg/mL
MIC90 (Clostridium sp.): 0.25 µg/mL (≈ 0.142 µM)
MIC50 (Coriobacterium): ≤ 0.12 µg/mL
MIC90 (Coriobacterium): 0.5 µg/mL (≈ 0.285 µM)
MIC50 (Clostridium leptum): ≤ 0.12 µg/mL
MIC90 (Clostridium leptum): 0.25 µg/mL (≈ 0.142 µM)
MIC50 (Prevotella bivia): 8 µg/mL (≈ 4.56 µM)
MIC90 (Prevotella bivia): 64 µg/mL (≈ 36.5 µM)
MIC50 (Fusobacterium varium): > 64 µg/mL
MIC90 (Fusobacterium varium): > 64 µg/mL
MIC50 (Prevotella nigrescens): 8 µg/mL (≈ 4.56 µM)
MIC90 (Prevotella nigrescens): 64 µg/mL (≈ 36.5 µM)
MIC50 [11]: ≤ 0.12 µg/mL
MIC90 [11]: 0.25 µg/mL (≈ 0.142 µM)
MIC50 (Parvimonas micra): ≤ 0.12 µg/mL
MIC90 (Parvimonas micra): 0.25 µg/mL (≈ 0.142 µM)
MIC50 (Blautia producta): ≤ 0.12 µg/mL
MIC90 (Blautia producta): ≤ 0.12 µg/mL
MIC50 (Clostridium beijerinckii): ≤ 0.12 µg/mL
MIC90 (Clostridium beijerinckii): 0.25 µg/mL (≈ 0.142 µM)
MIC50 (Prevotella corporis): 8 µg/mL (≈ 4.56 µM)
MIC90 (Prevotella corporis): 64 µg/mL (≈ 36.5 µM)
MIC50 (Ruminococcus lactaris): ≤ 0.12 µg/mL
MIC90 (Ruminococcus lactaris): ≤ 0.12 µg/mL
MIC50 (Ruminococcus sp.): ≤ 0.12 µg/mL
MIC90 (Ruminococcus sp.): 0.25 µg/mL (≈ 0.142 µM)
MIC50 (Anaerococcus prevotii): ≤ 0.12 µg/mL
MIC90 (Anaerococcus prevotii): 0.25 µg/mL (≈ 0.142 µM)
MIC (Ruminococcus gnavus): ≤ 0.12 µg/mL
MIC50 (Ruminococcus gnavus): ≤ 0.12 µg/mL
MIC90 (Ruminococcus gnavus): ≤ 0.12 µg/mL
